From ChEMBL document CHEMBL1629695, “A novel polymyxin derivative that lacks the fatty acid tail and carries only three positive charges has strong synergism with agents excluded by the intact outer membrane” (Antimicrob Agents Chemother, 2010)
Converted amounts (≈) assume the structure as drawn. The source made the active and inactive calls. The rule behind the calls is not given here. Bridge positions count the residues as written; N and C are the ends. Square brackets hold non-standard residues; d marks the D form. Peptide text beside a SMILES is read from it. Dab = NCC[C@H](N)C(=O)O

Columns and labels:
Escherichia coli [1] = test: Antimicrobial activity against Escherichia coli IH3080 by Etest method in presence of 4 ug/ml NAB741; format: functional
Escherichia coli [2] = test: Antimicrobial activity against Escherichia coli ATCC 25922 by Etest method; format: functional
Enterobacter cloacae [3] = test: Antimicrobial activity against in Enterobacter cloacae ATCC 23355 in presence of NAB741; format: functional
Escherichia coli [4] = test: Antimicrobial activity against Escherichia coli ATCC 25922 in presence of 4 ug/ml NAB741; format: functional
Escherichia coli [5] = test: Antimicrobial activity against Escherichia coli IH3080 by Etest method; format: functional
Enterobacter cloacae [6] = test: Ratio of MIC for Enterobacter cloacae ATCC 23355 to MIC for Enterobacter cloacae ATCC 23355 in presence of 4 ug/ml of NAB741; format: functional
Escherichia coli [7] = test: Antimicrobial activity against in Escherichia coli ATCC 25922 in presence of NAB741; format: functional
Escherichia coli [8] = test: Antimicrobial activity against Escherichia coli ATCC 25922 in presence of 8 ug/ml NAB741; format: functional
Acinetobacter baumannii [9] = test: Antimicrobial activity against Acinetobacter baumannii ATCC 19606 by Etest method in presence of 2 ug/ml NAB741; format: functional
Enterobacter cloacae [10] = test: Antimicrobial activity against Enterobacter cloacae ATCC 23355 by Etest method in presence of 2 ug/ml NAB741; format: functional
Escherichia coli [11] = test: Ratio of MIC for Escherichia coli IH3080 to MIC for Escherichia coli IH3080 in presence of 4 ug/ml of NAB741; format: functional
Acinetobacter baumannii [12] = test: Ratio of MIC for Acinetobacter baumannii ATCC 19606 to MIC for Acinetobacter baumannii ATCC 19606 in presence of 4 ug/ml of NAB741; format: functional
Escherichia coli [13] = test: Antimicrobial activity against Escherichia coli ATCC 25922 by Etest method in presence of 2 ug/ml NAB741; format: functional
Escherichia coli [14] = test: Antimicrobial activity against in Escherichia coli IH3080 in presence of NAB741; format: functional
Escherichia coli [15] = test: Antimicrobial activity against Escherichia coli ATCC 25922 in presence of 32 ug/ml NAB741; format: functional
Escherichia coli [16] = test: Antimicrobial activity against Escherichia coli ATCC 25922 in presence of […] ug/ml NAB741; format: functional
Acinetobacter baumannii [17] = test: Antimicrobial activity against Acinetobacter baumannii ATCC 19606 by Etest method in presence of 4 ug/ml NAB741; format: functional
Escherichia coli [18] = test: Ratio of MIC for Escherichia coli ATCC 25922 to MIC for Escherichia coli ATCC 25922 in presence of 4 ug/ml of NAB741; format: functional
Escherichia coli [19] = test: Antimicrobial activity against Escherichia coli ATCC 25922 in presence of 2 ug/ml NAB741; format: functional
Klebsiella pneumoniae [20] = test: Ratio of MIC for Klebsiella pneumoniae ATCC 13883 to MIC for Klebsiella pneumoniae ATCC 13883 in presence of 4 ug/ml of NAB741; format: functional
Klebsiella pneumoniae [21] = test: Antimicrobial activity against Klebsiella pneumoniae ATCC 13883 by Etest method; format: functional
Acinetobacter baumannii [22] = test: Antimicrobial activity against in Acinetobacter baumannii ATCC 19606 in presence of NAB741; format: functional
Klebsiella pneumoniae [23] = test: Antimicrobial activity against Klebsiella pneumoniae ATCC 13883 by Etest method in presence of 4 ug/ml NAB741; format: functional
Enterobacter cloacae [24] = test: Antimicrobial activity against Enterobacter cloacae ATCC 23355 by Etest method; format: functional
Escherichia coli [25] = test: Antimicrobial activity against Escherichia coli IH3080 by Etest method in presence of 2 ug/ml NAB741; format: functional
Escherichia coli [26] = test: Antimicrobial activity against Escherichia coli ATCC 25922; format: functional
Acinetobacter baumannii [27] = test: Antimicrobial activity against Acinetobacter baumannii ATCC 19606 by Etest method; format: functional
Enterobacter cloacae [28] = test: Antimicrobial activity against Enterobacter cloacae ATCC 23355 by Etest method in presence of 4 ug/ml NAB741; format: functional
Escherichia coli [29] = test: Antimicrobial activity against Escherichia coli ATCC 25922 by Etest method in presence of 4 ug/ml NAB741; format: functional
Klebsiella pneumoniae [30] = test: Antimicrobial activity against in Klebsiella pneumoniae ATCC 13883 in presence of NAB741; format: functional
Klebsiella pneumoniae [31] = test: Antimicrobial activity against Klebsiella pneumoniae ATCC 13883 by Etest method in presence of 2 ug/ml NAB741; format: functional
[32] = (§1) Volume of distribution in Sprague-Dawley rat at 1 mg/kg, iv; format: ADME, organism-based; parameters: dose 1 mg/kg, route intravenous; settings: Sprague-Dawley, in vivo
[33] = Renal clearance in Sprague-Dawley rat at 1 mg/kg, iv; format: ADME, organism-based, Kidney; parameters: dose 1 mg/kg, route intravenous; settings: in vivo, read-out: CL_renal
[34] = (§2) Drug level in Sprague-Dawley rat urine at 1 mg/kg, iv; format: ADME, organism-based; parameters: dose 1 mg/kg, route intravenous; settings: Sprague-Dawley, urine, read-out: Drug uptake
Escherichia coli [35] = test: Antimicrobial activity against Escherichia coli IH3080 assessed as zone of inhibition at 10 ug after 18 hrs by disk diffusion method; format: functional
[36] = Plasma concentration in Sprague-Dawley rat at 1 mg/kg, iv administered after 10 minutes; format: ADME, organism-based; parameters: dose 1 mg/kg, route intravenous
Pseudomonas aeruginosa [37] = test: Antimicrobial activity against Pseudomonas aeruginosa ATCC 27853 assessed as zone of inhibition at 10 ug after 18 hrs by disk diffusion method in presence of 1 ug/ml rifampin; format: functional
Acinetobacter baumannii [38] = test: Antimicrobial activity against Acinetobacter baumannii ATCC 19606 assessed as zone of inhibition at 10 ug after 18 hrs by disk diffusion method; format: functional
Enterobacter cloacae [39] = test: Antimicrobial activity against Enterobacter cloacae ATCC 23355 at 16 ug/ml; format: functional, organism-based
Acinetobacter baumannii [40] = test: Antimicrobial activity against Acinetobacter baumannii ATCC 19606 assessed as zone of inhibition at 10 ug after 18 hrs by disk diffusion method in presence of 1 ug/ml rifampin; format: functional
[41] = Total body clearance in Sprague-Dawley rat at 1 mg/kg, iv; format: ADME, organism-based; parameters: dose 1 mg/kg, route intravenous; settings: in vivo
[42] = (§3) Half-life in Sprague-Dawley rat at 1 mg/kg, iv; format: ADME, organism-based; parameters: dose 1 mg/kg, route intravenous; settings: Sprague-Dawley, in vivo
V79 = test: Cytotoxicity against Chinese hamster V79 cells at 0.25 ug/ml to 128 ug/ml after 24 hrs; format: cell-based, Cricetulus griseus; settings: v79, 24 h
Escherichia coli [43] = test: Antimicrobial activity against Escherichia coli F19; format: functional
Escherichia coli [44] = test: Antimicrobial activity against Escherichia coli IH3080 assessed as zone of inhibition at 10 ug after 18 hrs by disk diffusion method in presence of 1 ug/ml rifampin; format: functional
Pseudomonas aeruginosa [45] = test: Antimicrobial activity against Pseudomonas aeruginosa ATCC 27853 assessed as zone of inhibition at 10 ug after 18 hrs by disk diffusion method; format: functional
Rattus norvegicus [46] = test: as §1; format: ADME, organism-based; parameters: dose 1 mg/kg, route intravenous; settings: in vivo
Rattus norvegicus [47] = test: as §2; format: ADME, organism-based; parameters: dose 1 mg/kg, route intravenous; settings: in vivo
Rattus norvegicus [48] = test: as §3; format: ADME, organism-based; parameters: dose 1 mg/kg, route intravenous; settings: in vivo

| Compound | MIC (Escherichia coli [1]) [µg/mL] | MIC (Escherichia coli [2]) [µg/mL] | fractional inhibitory concentration index (FICI) (Enterobacter cloacae [3]) | MIC (Escherichia coli [4]) [µg/mL] | MIC (Escherichia coli [5]) [µg/mL] | fractional inhibitory concentration index (FICI) (Escherichia coli [7]) | MIC (Escherichia coli [8]) [µg/mL] | MIC (Acinetobacter baumannii [9]) [µg/mL] | MIC (Enterobacter cloacae [10]) [µg/mL] | MIC (Escherichia coli [13]) [µg/mL] | fractional inhibitory concentration index (FICI) (Escherichia coli [14]) | MIC (Escherichia coli [15]) [µg/mL] | MIC (Escherichia coli [16]) [µg/mL] | MIC (Acinetobacter baumannii [17]) [µg/mL] | MIC (Escherichia coli [19]) [µg/mL] | MIC (Klebsiella pneumoniae [21]) [µg/mL] | fractional inhibitory concentration index (FICI) (Acinetobacter baumannii [22]) | MIC (Klebsiella pneumoniae [23]) [µg/mL] | MIC (Enterobacter cloacae [24]) [µg/mL] | MIC (Escherichia coli [25]) [µg/mL] | also measured |
| --- | --- | --- | --- | --- | --- | --- | --- | --- | --- | --- | --- | --- | --- | --- | --- | --- | --- | --- | --- | --- | --- |
| CC[C@H]1OC(=O)[C@H](C)[C@@H](O[C@H]2C[C@@](C)(OC)[C@@H](O)[C@H](C)O2)[C@H](C)[C@@H](O[C@@H]2O[C@H](C)C[C@H](N(C)C)[C@H]2O)[C@](C)(OC)C[C@@H](C)C(=O)[C@H](C)[C@@H](O)[C@]1(C)O [CLARITHROMYCIN] | 0.125 | 16 (≈ 21.4 µM) | 0.135 | 1 | 12 (≈ 16 µM) | 0.094 | 0.5 | 0.75 | 16 | 0.5 | 0.126 | 0.063 | 0.25 | 0.5 | 32 | 12 (≈ 16 µM) | 0.156 | 1 | 48 (≈ 64.2 µM) | 1 | Ratio (Enterobacter cloacae [6]): 64; Ratio (Escherichia coli [11]): 64; Ratio (Acinetobacter baumannii [12]): 12; Ratio (Escherichia coli [18]): 84; Ratio (Klebsiella pneumoniae [20]): 6; MIC (Escherichia coli [26]): ≥ 64 µg/mL; MIC (Acinetobacter baumannii [27]): 8 µg/mL (≈ 10.7 µM); MIC (Enterobacter cloacae [28]): 0.5 µg/mL; MIC (Escherichia coli [29]): 0.094 µg/mL; fractional inhibitory concentration index (FICI) (Klebsiella pneumoniae [30]): 0.167; MIC (Klebsiella pneumoniae [31]): 4 µg/mL |
| CO[C@H]1/C=C/O[C@@]2(C)Oc3c(C)c(O)c4c(O)c(c(/C=N/N5CCN(C)CC5)c(O)c4c3C2=O)NC(=O)/C(C)=C\C=C\[C@H](C)[C@H](O)[C@@H](C)[C@@H](O)[C@@H](C)[C@H](OC(C)=O)[C@@H]1C [RIFAMPIN] | 0.047 | 4 (≈ 4.86 µM) | 0.126 | 1 | 4 (≈ 4.86 µM) | 0.126 | 0.25 | 0.19 | 1.5 | 0.64 | 0.111 | 0.031 | 0.063 | 0.094 | 4 | 12 (≈ 14.6 µM) | 0.131 | 0.5 | 6 (≈ 7.29 µM) | 0.19 | MIC (Escherichia coli [26]): 8 µg/mL (≈ 9.72 µM); MIC (Acinetobacter baumannii [27]): 1.5 µg/mL (≈ 1.82 µM); MIC (Enterobacter cloacae [28]): 0.016 µg/mL; MIC (Escherichia coli [29]): 0.016 µg/mL; MIC (Klebsiella pneumoniae [31]): 1 µg/mL |
| CC(=O)N[C@H](C(=O)N[C@H](CO)C(=O)N[C@H]1CCNC(=O)[C@H]([C@@H](C)O)NC(=O)[C@H](CCN)NC(=O)[C@H](CCN)NC(=O)[C@H](CC(C)C)NC(=O)[C@@H](Cc2ccccc2)NC(=O)[C@H](CCN)NC1=O)[C@@H](C)O [SPR-741] (Ac-T[dS][Dab][Dab][dF]L[Dab][Dab]T; lactam 3-C) | – | – | – | – | – | – | – | – | – | – | – | – | – | – | – | – | – | – | – | – | Vd [32]: 0.243 L/kg; CL renal [33]: 3.78 mL/min/kg; dose excreted [34]: 50.9%; inhibition zone (IZ) (Escherichia coli [35]): 12 mm2; concentration at 10 min [36]: 3130 ng/mL; inhibition zone (IZ) (Pseudomonas aeruginosa [37]): 20 mm2; inhibition zone (IZ) (Acinetobacter baumannii [38]): 9 mm2; Activity (Enterobacter cloacae [39]): Active; inhibition zone (IZ) (Acinetobacter baumannii [40]): 223 mm2; clearance [41]: 7.39 mL/min/kg; half-life [42]: 32.7 min; Activity (V79): Non-toxic; MIC (Escherichia coli [43]): 16 µg/mL (≈ 16.1 µM); inhibition zone (IZ) (Escherichia coli [44]): 230 mm2; inhibition zone (IZ) (Pseudomonas aeruginosa [45]): 4 mm2 |
| COLISTIN | – | – | – | – | – | – | – | – | – | – | – | – | – | – | – | – | – | – | – | – | Vd (Rattus norvegicus [46]): 0.496 L/kg; Drug uptake (Rattus norvegicus [47]): 0.18%; t1/2 (Rattus norvegicus [48]): 74.6 min |
